Common to all, as to assay type: cell-based, Staphylococcus aureus
In assay [1] the test system is S. aureus rat mutant. Put plainly: TRITON X-100 sensitivity, rat mutant. How it is done:
(§1) TRITON® X-100 sensitivity was determined for rat, sarA, and rat-sarA double-mutant strains.
(§2) The effect of TRITON® X-100 on growing cells was determined by diluting cultures grown overnight to an OD650 nm of 0.1 in TSB with varying concentrations of TRITON® X-100. Cells were incubated at 37° C. with shaking and the optical density was recorded hourly for seven to eight hours.
(§3) TRITON® X-100-induced autolysis assays were conducted by diluting cultures grown overnight to an OD650 nm of 0.05 in TSB containing 1 M NaCl. Cells were allowed to grow at 37° C. with shaking until an OD650 nm of 0.7 was reached. Cells were harvested, washed twice with ice cold water and then resuspended in the same volume of 0.05 M Tris-HCl, pH 7.2, containing 0.05% TRITON® X-100. Cells were incubated at 30° C. with shaking and lysis was determined by measuring absorbance at OD600 nm at 30 minutes intervals.

The test system of the next assay is S. aureus sarA mutant. Put plainly: TRITON X-100 sensitivity, sarA mutant. The procedure:
as §1, §2, §3

The test system of assay [2] is S. aureus rat-sarA double-mutant. As to the kind of experiment: TRITON X-100-induced cell lysis, rat-sarA double mutant. As to conditions: compared with single mutants. The procedure: as §1, §2, §3
Another assay concerns wild-type S. aureus. Put plainly: Penicillin sensitivity assay (growth curve, OD650 nm), wild-type strain. As to conditions: 200 ng/ml (subinhibitory) added at OD650 nm of 0.5, mid-log phase. How it is done: (§4) Rat plays a role in regulating autolytic activity of S. aureus. […] Furthermore, inactivation of the rat locus renders the S. aureus bacteria sensitive to lysis upon growth beyond the mid-log phase. To evaluate whether the cell lysis of the rat mutant was additive to the effect of a subinhibitory concentration of penicillin, 200 ng/ml of penicillin was added to a growing culture of the rat mutant at an OD650 nm of 0.5, corresponding to the mid-log phase. […] This finding is consistent with the additive effect of penicillin upon the lytic propensity of the rat mutant late in the growth cycle. […] In comparison to the parental strain, the rat mutant with subinhibitory concentrations of penicillin has a 3-4 log kill than the parental strain with antibiotics.
(§5) Penicillin sensitivity assays were conducted by diluting rat mutant cultures grown overnight to an OD650 nm of 0.05 in TSB containing the appropriate antibiotics to maintain selection. Cultures were grown at 37° C. with shaking to reach exponential phase (OD650 nm=0.5). Penicillin G was added to a concentration of […]. Optical densities at 650 nm were measured every hour for eight to nine hours.

The test system of assay [3] is S. aureus complemented strain (ACL2531). As to the kind of experiment: Penicillin-induced lysis, complemented strain (ACL2531). The following applies: 100 μg penicillin (3× MIC). The procedure:
(§6) Similar to the rat transposon mutant, the rat deletion mutant was unable to grow to an OD650 nm of 1.7 (early-stationary).
Penicillin sensitivity assays were conducted by diluting rat mutant cultures grown overnight to an OD650 nm of 0.05 in TSB containing the appropriate antibiotics to maintain selection. Cultures were grown at 37° C. with shaking to reach exponential phase (OD650 nm=0.5). […] Optical densities at 650 nm were measured every hour for eight to nine hours.

Assay [4] relates to S. aureus rat mutant. Put plainly: Penicillin sensitivity assay (growth curve, OD650 nm), rat mutant. The following applies: 200 ng/ml (subinhibitory) added at OD650 nm of 0.5, mid-log phase. How it is done:
as §4, §5

Assay [5] concerns S. aureus rat deletion mutant. As to the kind of experiment: Penicillin-induced lysis, rat deletion mutant (ACL2530). The following applies: 100 μg penicillin (3× MIC). The procedure:
as §6, §5

The test system of assay [6] is S. aureus rat mutant. As to the kind of experiment: Plating of antibiotic-treated cultures on agar plates without antibiotic selection (kill). As to conditions: subinhibitory concentrations of penicillin; plated on agar without antibiotic selection. How it is done:
as §4

Take TRITON® X-100: the “TRITON X-100 concentration at which sensitivity was displayed” value in the assay on S. aureus rat mutant [1] and in the assay on S. aureus sarA mutant was not below 0.01% throughout. Also, the “TRITON X-100-induced cell lysis” value in assay [2] was “more severe defect”.

Regarding penicillin, the figures for the “optical density as the growth cycle progressed after addition of penicillin” value in the assay on wild-type S. aureus and in the assay with S. aureus rat mutant [4] were “no increase in optical density” and “further reduction in optical density”, respectively. In addition, the figures for the “lysis in the presence of penicillin” value in assay [3] and in assay [5] were “behaved like wild-type” and “readily lysed”, respectively. Further, the “kill of rat mutant compared with the parental strain with antibiotics” value in the assay with S. aureus rat mutant [6] is 3-4 log.

(Values after US7258984B2, “Compositions and methods for identifying agents which regulate autolytic processes in bacteria” (priority 2001, dated 2007).)
